The record followed here is patent US9706776B2, “Pesticidally active substituted 5,5-bicyclic heterocycles with sulphur containing substituents” (Syngenta Participations AG, priority 2013, dated 2017).

Data set [1] deals with Spodoptera littoralis (Egyptian cotton leaf worm). In words: Example B1: Spodoptera littoralis larvicide, feeding/residual contact, preventive (cotton leaf discs). The class given is in vivo. Conditions: foliar, 72 h, L1 larvae, 3 days after treatment, read-out: activity (mortality, repellent effect, feeding behaviour, growth regulation). The source says:
Example B1: Activity Against Spodoptera littoralis (Egyptian Cotton Leaf Worm)
(§1) (Larvicide, Feeding/Residual Contact Activity, Preventive)
Cotton leaf discs were placed on agar in a 24-well microtiter plate and sprayed with test solutions. After drying, the leaf discs were infested with 5 L1 larvae. The samples were checked for mortality, repellent effect, feeding behaviour, and growth regulation 3 days after treatment (DAT).

Data set [2] shares this test system. In words: Example B2: Spodoptera littoralis systemic activity (lettuce on agar). The data set is classed as in vivo. Conditions: 120 h, 5 days after infestation, read-out: activity (mortality, repellent effect, feeding behavior, growth regulation). The source says:
Example B2: Activity Against Spodoptera littoralis (Egyptian Cotton Leaf Worm)
Test compounds were applied by pipette into 24 well plates and mixed with agar. Lettuce seeds were placed on the agar and the multi well plate is closed by another plate which contains also agar. After 7 days the roots have absorbed the compound and the lettuce has grown into the lid plate. The lettuce leaves were now cut off into the lid plate. Spodoptera eggs were pipetted through a plastic stencil on a humid gel blotting paper and the plate closed with it. The samples are checked for mortality, repellent effect, feeding behavior, and growth regulation 5 days after infestation.

The subject of data set [3] is Plutella xylostella (diamond back moth). In words: Example B3: Plutella xylostella larvicide, feeding/residual contact, preventive (artificial diet). The data set is classed as in vivo. Conditions: 120 h, L2 larvae, incubation 5 days, read-out: activity (larval mortality, antifeedant, growth regulation). The protocol: Example B3: Activity Against Plutella xylostella (Diamond Back Moth)
as §1
24-well microtiter plate (MTP) with artificial diet was treated with test solutions by pipetting. After drying, the MTPs were infested with L2 larvae (10-15 per well). After an incubation period of 5 days, samples were checked for larval mortality, antifeedant and growth regulation.

Data set [4] concerns Diabrotica balteata (corn root worm). In words: Example B4: Diabrotica balteata larvae L2 on maize sprouts, feeding/contact, preventative. The conditions noted are these: 120 h, incubation 5 days, read-out: activity (larval mortality, growth regulation). The data set is classed as in vivo. Here is the method: Example B4: Activity Against Diabrotica Balteata (Corn Root Worm)
(Larvae L2 on Maize Sprouts, Feeding/Contact, Preventative)
Maize sprouts, placed on an agar layer in 24 well micro titer plates were treated with test solutions by spraying. After drying, the MTPs were infested with L2 larvae (6-10 per well). After an incubation period of 5 days, samples were checked for larval mortality and growth regulation.

The test system of data set [5] is Myzus persicae (green peach aphid). In words: Example B5: Myzus persicae feeding/residual contact, preventive, mixed population (sunflower leaf discs). Conditions: foliar, 144 h, 6 DAT, read-out: activity (mortality and special effects). The class given is in vivo. Here is the method:
Example B5: Activity Against Myzus persicae (Green Peach Aphid)
(Feeding/Residual Contact Activity, Preventive), Mixed Population
Sunflower leaf discs were placed on agar in a 24-well microtiter plate and sprayed with test solutions. After drying, the leaf discs were infested with an aphid population of mixed ages. After an incubation period of 6 DAT, samples were checked for mortality and special effects (e.g. phytotoxicity).

Data set [6] shares this test system. In words: Example B6: Myzus persicae feeding activity sachet test, mixed population. The data set is classed as in vivo. The conditions noted are these: 120 h, 5 days after infestation. The source says: Example B6: Activity Against Myzus persicae (Green Peach Aphid)
(Feeding Activity Sachet Test), Mixed Population
Test compounds were applied by pipette into 24 well plates and mixed with Sucrose solution. The plates were closed with a stretched Parafilm. A plastic stencil with 24 holes is placed onto the plate and infested pea seedlings were placed directly on the Parafilm. The infested plate is closed with a gel blotting paper and another plastic stencil and then turned upside down. 5 days after infestation the samples were checked on mortality. Application rate: 12.5 ppm.

Data set [7] has the same test system. In words: Example B7: Myzus persicae systemic/feeding activity, curative, mixed population (pea seedlings). The class given is in vivo. Conditions: 144 h, systemic, 6 days after introduction, read-out: activity (mortality and special effects on the plant). The source says: Example B7: Activity Against Myzus persicae (Green Peach Aphid)
(Systemic/Feeding Activity, Curative), Mixed Population
Roots of pea seedlings, infested with an aphid population of mixed ages, were placed directly in the test solutions. 6 days after introduction, samples were checked for mortality and special effects on the plant.

For data set [8], the system named is Anopheles stephensi (Indian malaria mosquito). In words: Example B10: Anopheles stephensi adult females on treated tissue culture plates. The class given is in vivo. The conditions noted are these: application rate 200 ppm in ethanol; after 48 h. The protocol: Example B10: Activity Against Anopheles stephensi (Indian Malaria Mosquito)
Test solutions, at an application rate of 200 ppm in ethanol, were applied to 12-well tissue culture plates. Once the deposits were dry, five, two to five day old adult female Anopheles stephensi were added to each well, and sustained with a 10% sucrose solution in a cotton wool plug. Assessment of knockdown was made one hour after introduction, and mortality was assessed at 24 and 48 hours after introduction.

Data set [9] concerns Euschistus heros (neotropical brown stink bug). In words: Example B8: Euschistus heros on sprayed soybean leaf. The data set is classed as in vivo. Conditions: 120 h, N-2 nymphs, 5 days after infestation. Here is the method:
Example B8: Activity Against Euschistus heros (Neotropical Brown Stink Bug)
Soybean leaf on agar in 24-well microtiter plates were sprayed with aqueous test solutions prepared from 10′000 ppm DMSO stock solutions. After drying the leaf were infested with N-2 nymphs. The samples were assessed for mortality 5 days after infestation.

With `CCS(=O)(=O)c1cccnc1-c1cn2nc(C(F)(F)F)sc2n1` [Compound P2, 6-(3-ethylsulfonyl-2-pyridyl)-2-(trifluoromethyl)imidazo[2,1-b][1,3,4]thiadiazole], the mortality at 400 ppm in data set [1], in [3], in data set [4] and in data set [5] was > 80% each time. The mortality at 12.5 ppm in [2] and in [6] was ≥ 80% throughout. The mortality at 24 ppm in data set [7] is ≥ 80%. Also, the “control of Anopheles stephensi” value in [8] is listed as “at least 80%”.

For the compound `CC[S+]([O-])c1cc(C(F)(F)F)cnc1-c1cn2cc(C(F)(F)F)sc2n1` (stereo not shown) [Compound P10], the mortality at 400 ppm in data set [1] is > 80%.

Consider `CCS(=O)(=O)c1cc(C(F)(F)F)cnc1-c1cn2cc(C(F)(F)F)sc2n1` [Compound P9, 6-[3-ethylsulfonyl-5-(trifluoromethyl)-2-pyridyl]-2-(trifluoromethyl)imidazo[2,1-b]thiazole], for which the mortality at 400 ppm in data set [1], in data set [3], in data set [4] and in data set [5] was > 80% each time.

Turning to `CC[S+]([O-])c1cc(C(F)(F)F)cnc1-c1cn2nc(C(F)(F)C(F)(F)F)sc2n1` (stereo not shown) [Compound P7], the mortality at 400 ppm in [1], in data set [3], in data set [4], in [5] and in data set [9] was > 80% in each case.

`CCSc1cc(C(F)(F)F)cnc1-c1cn2nc(C(F)(F)C(F)(F)F)sc2n1` [Compound P6] yielded a melting point of 110 to 112 °C.

As for `CCS(=O)(=O)c1cccnc1-c1nc2sc(C(F)(F)F)nn2c1C` [Compound P5], the mortality at 400 ppm in data set [1], in data set [3] and in data set [5] was > 80% in each case. Besides, the mortality at 24 ppm in data set [7] was ≥ 80%.

Take `CCS(=O)(=O)c1cc(C(F)(F)F)cnc1-c1cn2nc(C(F)(F)C(F)(F)F)sc2n1` [Compound P8]: the mortality at 400 ppm in data set [1], in data set [3], in [4], in [5] and in [9] was > 80% in each case. Moreover, in [2], the mortality at 12.5 ppm is ≥ 80%.

For `CCS(=O)(=O)c1cc(C(F)(F)F)cnc1-c1cn2nc(C(F)(F)F)sc2n1` [Compound P4], the mortality at 400 ppm in data set [1], in data set [3] and in data set [4] was > 80% throughout.

On to `CCS(=O)(=O)c1cc(C(F)(F)F)cnc1-c1nc2sc(C(F)(F)F)nn2c1C` [Compound P3, 6-[3-ethylsulfonyl-5-(trifluoromethyl)-2-pyridyl]-5-methyl-2-(trifluoromethyl)imidazo[2,1-b][1,3,4]thiadiazole], for which the mortality at 400 ppm in [1], in data set [3], in data set [4] and in data set [5] was > 80% throughout. Besides, in [6], the mortality at 12.5 ppm is ≥ 80%.
